The values that follow come from ChEMBL document CHEMBL1136091, “Borrelidin induces the transcription of amino acid biosynthetic enzymes via a GCN4-dependent pathway” (Bioorg Med Chem Lett, 2003).

What is called pIC50 is the IC50 on a negative log10 scale, so that one unit is a factor of ten. As usually defined, the Inhibition is the change of the read-out against control, counted positive when it falls. A high value points to a response far below the control.

pIC50: −log10 of the molar value.

The target of test [1] is Cyclin-dependent kinase 1 (Saccharomyces cerevisiae S288c, UniProt P00546). The test is described as follows: Inhibition of cyclin-dependent kinase activity of Cdc28p/CDK2p in Saccharomyces cerevisiae.
Cyclin-dependent kinase 1, sequence (P00546 whole entry): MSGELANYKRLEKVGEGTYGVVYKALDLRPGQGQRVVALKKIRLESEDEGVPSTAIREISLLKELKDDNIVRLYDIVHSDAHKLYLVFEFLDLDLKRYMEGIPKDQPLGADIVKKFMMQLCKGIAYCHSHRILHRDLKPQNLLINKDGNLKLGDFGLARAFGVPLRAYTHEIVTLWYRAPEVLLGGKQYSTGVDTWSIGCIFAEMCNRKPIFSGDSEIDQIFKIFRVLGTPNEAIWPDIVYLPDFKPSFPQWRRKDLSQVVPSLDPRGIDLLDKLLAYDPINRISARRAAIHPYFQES
The subject of test [2] is Saccharomyces cerevisiae. The test is described as follows: Ability to inhibit cell proliferation of Saccharomyces cerevisiae strain BY4741. It counts as functional, organism-based.
In test [3] the test system is Saccharomyces cerevisiae. In words: Global transcription profiling experiment to examine the changes in the mRNA levels in the wt laboratory strain treated with the concentration of borrelidin ([…]) that inhibitedcontinued growth of wt yeast. It counts as functional.

Take `C[C@@H]1C[C@H](C)C[C@H](C)[C@@H](O)CC(=O)O[C@H]([C@@H]2CCC[C@H]2C(=O)O)C/C=C/C=C(/C#N)[C@H](O)[C@@H](C)C1` [BORRELIDIN]: the results for the pIC50 in test [1] and in test [2] were 4.62 and 4.64, respectively. In test [3], this compound had an Inhibition of 75%.
